{"source": "ChEMBL document CHEMBL3132769", "about": "“Fragment growing to retain or alter the selectivity of anchored kinase hinge-binding fragments” (Medchemcomm, 2014)", "key": {"[1]": {"molecular_target": "T1, Testis-specific serine/threonine-protein kinase 2 (Homo sapiens) (UniProt Q96PF2)", "T1 sequence (whole entry)": "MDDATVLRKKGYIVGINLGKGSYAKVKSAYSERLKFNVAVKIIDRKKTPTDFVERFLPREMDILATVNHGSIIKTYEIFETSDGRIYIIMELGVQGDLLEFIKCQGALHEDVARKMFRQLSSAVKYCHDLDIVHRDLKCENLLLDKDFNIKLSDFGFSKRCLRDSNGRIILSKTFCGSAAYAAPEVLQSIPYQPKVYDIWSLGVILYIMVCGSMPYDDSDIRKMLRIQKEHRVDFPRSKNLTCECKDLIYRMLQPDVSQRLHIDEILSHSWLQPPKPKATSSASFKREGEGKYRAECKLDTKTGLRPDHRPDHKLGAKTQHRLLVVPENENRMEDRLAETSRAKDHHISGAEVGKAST", "assay": "Inhibition of human full length TSSK2 expressed in baculovirus assessed as substrate phosphorylation using fluorescence-labelled peptides as substrate at 420 uM after 90 mins by microfluidic peptide phosphorylation assay"}, "[2]": {"molecular_target": "T2, Aurora kinase A (Homo sapiens) (UniProt O14965)", "T2 sequence (whole entry)": "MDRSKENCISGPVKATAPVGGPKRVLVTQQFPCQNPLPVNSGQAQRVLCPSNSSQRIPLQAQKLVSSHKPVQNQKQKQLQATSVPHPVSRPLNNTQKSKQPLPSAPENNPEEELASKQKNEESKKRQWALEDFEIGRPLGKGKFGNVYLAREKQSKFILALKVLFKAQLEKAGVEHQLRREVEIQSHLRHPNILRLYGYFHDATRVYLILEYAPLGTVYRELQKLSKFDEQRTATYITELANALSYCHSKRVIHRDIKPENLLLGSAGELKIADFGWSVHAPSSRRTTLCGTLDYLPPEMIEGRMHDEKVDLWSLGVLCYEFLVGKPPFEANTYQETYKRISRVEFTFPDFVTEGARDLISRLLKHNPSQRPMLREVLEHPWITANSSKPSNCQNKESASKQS", "assay": "Inhibition of human full length AurA expressed in baculovirus assessed as substrate phosphorylation using fluorescence-labelled peptides as substrate at 9 uM after 90 mins by microfluidic peptide phosphorylation assay"}, "[3]": {"molecular_target": "T2, Aurora kinase A (Homo sapiens)", "assay": "Inhibition of human full length AurA expressed in baculovirus assessed as substrate phosphorylation using fluorescence-labelled peptides as substrate at 2 uM after 90 mins by microfluidic peptide phosphorylation assay"}, "[4]": {"molecular_target": "T3, cGMP-dependent protein kinase 1 (Homo sapiens) (UniProt Q13976)", "T3 sequence (whole entry)": "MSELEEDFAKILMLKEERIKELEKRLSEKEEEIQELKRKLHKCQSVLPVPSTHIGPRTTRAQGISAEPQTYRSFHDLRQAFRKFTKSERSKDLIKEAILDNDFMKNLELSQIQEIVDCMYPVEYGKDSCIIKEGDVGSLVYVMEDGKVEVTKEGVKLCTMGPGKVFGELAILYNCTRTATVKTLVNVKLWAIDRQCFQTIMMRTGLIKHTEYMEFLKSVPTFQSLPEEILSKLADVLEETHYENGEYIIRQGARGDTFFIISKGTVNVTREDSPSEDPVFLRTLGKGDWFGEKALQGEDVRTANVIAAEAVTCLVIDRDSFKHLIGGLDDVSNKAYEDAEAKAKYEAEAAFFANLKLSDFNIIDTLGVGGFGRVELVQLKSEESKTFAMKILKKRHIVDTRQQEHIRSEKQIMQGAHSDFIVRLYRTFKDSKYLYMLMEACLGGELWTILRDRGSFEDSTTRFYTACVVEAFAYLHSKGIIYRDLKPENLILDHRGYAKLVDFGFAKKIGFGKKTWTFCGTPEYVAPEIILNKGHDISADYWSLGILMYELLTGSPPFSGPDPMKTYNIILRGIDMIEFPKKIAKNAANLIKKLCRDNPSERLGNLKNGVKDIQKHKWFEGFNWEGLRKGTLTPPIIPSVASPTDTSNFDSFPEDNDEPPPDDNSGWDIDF", "assay": "Inhibition of human full length PKG-1a expressed in baculovirus assessed as substrate phosphorylation using fluorescence-labelled peptides as substrate at 95 uM after 90 mins by microfluidic peptide phosphorylation assay"}, "[5]": {"molecular_target": "Aurora kinase B (Homo sapiens) (UniProt Q96GD4)", "sequence (Q96GD4 whole entry)": "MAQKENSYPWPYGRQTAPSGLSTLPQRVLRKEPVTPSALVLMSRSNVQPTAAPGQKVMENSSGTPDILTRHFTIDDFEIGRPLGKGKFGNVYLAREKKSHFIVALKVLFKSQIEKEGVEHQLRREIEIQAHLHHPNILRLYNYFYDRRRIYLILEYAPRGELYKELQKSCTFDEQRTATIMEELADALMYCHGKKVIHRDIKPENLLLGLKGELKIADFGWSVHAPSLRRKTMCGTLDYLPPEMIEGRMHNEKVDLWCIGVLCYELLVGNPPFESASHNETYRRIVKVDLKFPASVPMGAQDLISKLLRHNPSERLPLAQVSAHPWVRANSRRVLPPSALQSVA", "assay": "Inhibition of human full length AurB expressed in baculovirus assessed as substrate phosphorylation using fluorescence-labelled peptides as substrate at 95 uM after 90 mins by microfluidic peptide phosphorylation assay"}, "[6]": {"molecular_target": "Serine/threonine-protein kinase MARK2 (Homo sapiens) (UniProt Q7KZI7)", "sequence (Q7KZI7 whole entry)": "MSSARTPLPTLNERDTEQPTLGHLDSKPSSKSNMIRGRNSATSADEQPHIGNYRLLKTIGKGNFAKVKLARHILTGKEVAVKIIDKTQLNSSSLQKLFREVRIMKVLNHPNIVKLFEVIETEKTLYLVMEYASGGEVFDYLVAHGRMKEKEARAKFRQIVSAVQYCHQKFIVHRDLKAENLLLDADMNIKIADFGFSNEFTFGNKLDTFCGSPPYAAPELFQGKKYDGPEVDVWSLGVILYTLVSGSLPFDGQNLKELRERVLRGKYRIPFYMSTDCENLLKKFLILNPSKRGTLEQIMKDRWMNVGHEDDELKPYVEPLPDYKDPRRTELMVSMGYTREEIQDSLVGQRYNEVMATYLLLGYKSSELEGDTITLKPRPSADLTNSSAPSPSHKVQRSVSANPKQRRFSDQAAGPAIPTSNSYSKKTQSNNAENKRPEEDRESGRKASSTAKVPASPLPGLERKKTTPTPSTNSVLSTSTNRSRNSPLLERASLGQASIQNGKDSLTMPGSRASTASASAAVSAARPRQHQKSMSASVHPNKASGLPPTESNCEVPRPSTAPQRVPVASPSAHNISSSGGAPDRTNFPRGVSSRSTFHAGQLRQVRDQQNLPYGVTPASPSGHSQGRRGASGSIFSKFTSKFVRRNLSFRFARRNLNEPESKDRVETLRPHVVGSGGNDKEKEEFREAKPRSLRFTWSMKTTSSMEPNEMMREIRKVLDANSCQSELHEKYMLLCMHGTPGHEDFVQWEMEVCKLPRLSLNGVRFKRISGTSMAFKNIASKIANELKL", "assay": "Inhibition of human full length MARK2 expressed in baculovirus assessed as substrate phosphorylation using fluorescence-labelled peptides as substrate at 70 uM after 90 mins by microfluidic peptide phosphorylation assay"}, "[7]": {"molecular_target": "T4, Interleukin-1 receptor-associated kinase 4 (Homo sapiens) (UniProt Q9NWZ3)", "T4 sequence (whole entry)": "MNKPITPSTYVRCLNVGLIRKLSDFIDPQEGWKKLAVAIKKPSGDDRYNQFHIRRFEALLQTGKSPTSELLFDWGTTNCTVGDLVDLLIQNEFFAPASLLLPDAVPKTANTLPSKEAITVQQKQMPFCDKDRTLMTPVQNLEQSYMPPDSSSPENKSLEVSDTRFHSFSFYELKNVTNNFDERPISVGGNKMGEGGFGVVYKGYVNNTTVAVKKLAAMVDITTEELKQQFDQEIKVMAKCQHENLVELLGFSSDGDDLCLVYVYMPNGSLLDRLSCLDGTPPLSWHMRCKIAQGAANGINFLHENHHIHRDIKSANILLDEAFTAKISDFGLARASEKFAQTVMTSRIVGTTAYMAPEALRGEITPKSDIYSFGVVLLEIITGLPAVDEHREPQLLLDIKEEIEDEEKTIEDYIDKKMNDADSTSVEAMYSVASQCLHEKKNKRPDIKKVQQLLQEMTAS", "assay": "Inhibition of human IRAK4 catalytic domain expressed in baculovirus assessed as substrate phosphorylation using fluorescence-labelled peptides as substrate at 1000 uM after 90 mins by microfluidic peptide phosphorylation assay"}}, "data": [{"smiles": "c1nc(N2CCOCC2)c2nc[nH]c2n1", "values": [{"measurement": "inhibition", "setting": "[1]", "result": 24.5, "unit": "%"}]}, {"smiles": "NCC1CN(c2ncnc3[nH]c4cnccc4c23)CCO1", "note": "(configuration not stated)", "values": [{"measurement": "inhibition", "setting": "[2]", "result": 23.5, "unit": "%"}]}, {"smiles": "NC1CCN(c2ncnc3[nH]ccc23)CC1", "values": [{"measurement": "inhibition", "setting": "[3]", "result": 64.5, "unit": "%"}]}, {"smiles": "NCCc1ccc(-c2ncnc3[nH]cnc23)cc1", "values": [{"measurement": "inhibition", "setting": "[4]", "result": 92, "unit": "%"}, {"measurement": "inhibition", "setting": "[5]", "result": 97, "unit": "%"}]}, {"smiles": "CNCc1ccc(-c2ncnc3[nH]cnc23)cc1", "values": [{"measurement": "inhibition", "setting": "[6]", "result": 61, "unit": "%"}]}, {"smiles": "c1cnc2[nH]ccc2c1", "values": [{"measurement": "inhibition", "setting": "[7]", "result": 65, "unit": "%"}]}]}
